# Results published in publication PMC9037111, “Structure-based design, synthesis, and biological evaluation of novel piperine–resveratrol hybrids as antiproliferative agents targeting SIRT-2” (RSC Advances, 2021).
# Tests used:
# Test in all cases: cells
# Parameters in all cases: species or system NCI-60 human tumour cell lines; NCI-60 one-dose screen at 10 uM, percent growth inhibition versus untreated control cells
# [1] = system: UACC-62; details: Homo sapiens, UACC-62; growth inhibition, one dose; read-out: Growth% inhibition / 5e
# [2] = system: A549/ATCC; details: Homo sapiens, A549; growth inhibition, one dose; read-out: Growth% inhibition / 5e
# [3] = system: PC-3; details: Homo sapiens, PC-3; growth inhibition, one dose; read-out: Growth% inhibition / 5e
# [4] = system: SNB-75; details: Homo sapiens, SNB-75; growth inhibition, one dose; read-out: Growth% inhibition / 5e
# [5] = system: T-47D; details: Homo sapiens, T47D; growth inhibition, one dose; read-out: Growth% inhibition / 5e
# [6] = system: SK-MEL-28; details: Homo sapiens, SK-MEL-28; growth inhibition, one dose; read-out: Growth% inhibition / 5e
# [7] = system: CCRF-CEM; details: Homo sapiens, CCRF-CEM; growth inhibition, one dose; read-out: Growth% inhibition / 5e
# [8] = system: HOP-92; details: Homo sapiens, HOP-92; growth inhibition, one dose; read-out: Growth% inhibition / 5e
# [9] = system: OVCAR-4; details: Homo sapiens, OVCAR-4; growth inhibition, one dose; read-out: Growth% inhibition / 5e
# [10] = system: UACC-257; details: Homo sapiens, UACC-257; growth inhibition, one dose; read-out: Growth% inhibition / 5e
# [11] = system: KM12; details: Homo sapiens, KM12; growth inhibition, one dose; read-out: Growth% inhibition / 5e
# [12] = system: SF-539; details: Homo sapiens, SF-539; growth inhibition, one dose; read-out: Growth% inhibition / 5e
# [13] = system: CAKI-1; details: Homo sapiens, CAKI-1; growth inhibition, one dose; read-out: Growth% inhibition / 5e
# [14] = system: IGROV1; details: Homo sapiens, IGROV-1; growth inhibition, one dose; read-out: Growth% inhibition / 5e
# [15] = system: NCI-H460; details: Homo sapiens, NCI-H460; growth inhibition, one dose; read-out: Growth% inhibition / 5e
# [16] = system: NCI-H522; details: Homo sapiens, NCI-H522; growth inhibition, one dose; read-out: Growth% inhibition / 5e
# [17] = system: 786-0; details: Homo sapiens, 786-0; growth inhibition, one dose; read-out: Growth% inhibition / 5e
# [18] = system: EKVX; details: Homo sapiens, EKVX; growth inhibition, one dose; read-out: Growth% inhibition / 5e
structure (smiles),measurement,setting,value
"CCN(CC)c1ccc(/C=N/NC(=O)/C=C/C=C/c2ccc3c(c2)OCO3)c(O)c1 [5e, (2E,4E)-5-(Benzo[d][1,3]dioxol-5-yl)-N′-((E)-4-(diethylamino)-2-hydroxybenzylidene)penta-2,4-dienehydrazide]",inhibition at 10 µM,[1],70.9%
same,inhibition at 10 µM,[2],46.7%
same,inhibition at 10 µM,[3],59.1%
same,inhibition at 10 µM,[4],41.2%
same,inhibition at 10 µM,[5],73.7%
same,inhibition at 10 µM,[6],48%
same,inhibition at 10 µM,[7],78.3%
same,inhibition at 10 µM,[8],51.6%
same,inhibition at 10 µM,[9],84.7%
same,inhibition at 10 µM,[10],75.8%
same,inhibition at 10 µM,[11],69.8%
same,inhibition at 10 µM,[12],77.3%
same,inhibition at 10 µM,[13],70.7%
same,inhibition at 10 µM,[14],61.8%
same,inhibition at 10 µM,[15],80.2%
same,inhibition at 10 µM,[16],87.5%
same,inhibition at 10 µM,[17],52.8%
same,inhibition at 10 µM,[18],47.8%
